Molecular target: T1, collagen I matrix (Bos taurus, UniProt P02453+P02465)
T1 construct: purchased PureCol (product name as printed)
Assay: Gradient generation and characterization in the collagen I matrix of the culture chamber (fluorescence detection)
Protocol: Invasive angiogenic sprouting in three dimensions was studied by embedding organs or clusters of cells in a collagen I matrix composed of Ham's F12 medium (Promocell), 6.26 mM NaOH, 20 mM HEPES, 0.117% NaHCO3, 1% Glutamax-I (Gibco) and 1.5 mg/ml collagen I (PureCol). The flow channels were sealed prior to casting of the gel by the insertion of PDMS plugs. These were cut out a little wider than the channels (˜7×5×0.6 mm) to prevent the gel from leaking into the flow channels. The gel volume (20 μl) deposited in the culture chamber was approximately twice the size of the chamber volume to account for shrinkage and to make sure that the when the culture system was assembled the gel would be slightly compressed in order to occupy the entire culture chamber. […] The collagen gel was left to polymerize in a regular cell incubator at 37° C. and 5% CO2 for 2 hours. Organs or cell clusters were deposited into the center of the culture chamber using a Pasteur pipette in the beginning of the polymerization process. The tissue can be carefully positioned with a needle or by tapping the side of the culture chamber. Both organs and cells can be grown in the fluidic culture device in its open configuration with the culture chamber facing upwards for several days by adding cell media to cover the top of the open culture chamber.
Stock solutions of recombinant VEGFA165 (PeproTech), FGF2 (PeproTech) and VEGFC (R&D systems) were stored at −20° C. until further use. […]
Flow in the culture system was generated by connecting two syringes (connected to a syringe pump) to the channel inlets. […] No flow was recorded through the culture chamber when the flow rates in the source and sink channels were kept identical.
The gradient profile was initially characterized by detection of F-VEGFA. […] FIG. 10 illustrates time-lapse series of the central part of the culture chamber (1.7×1.3 mm) as a gradient of F-VEGFA is established; gradient formation in the culture chamber was detected by measuring the fluorescent signal. […] The profiles are recorded at the center of the chamber, indicated by black bar in FIG. 12. […]

[1] = collagen I matrix, flow 0.5 μl/min

T1 sequence (P02453 162-1217 limits assumed): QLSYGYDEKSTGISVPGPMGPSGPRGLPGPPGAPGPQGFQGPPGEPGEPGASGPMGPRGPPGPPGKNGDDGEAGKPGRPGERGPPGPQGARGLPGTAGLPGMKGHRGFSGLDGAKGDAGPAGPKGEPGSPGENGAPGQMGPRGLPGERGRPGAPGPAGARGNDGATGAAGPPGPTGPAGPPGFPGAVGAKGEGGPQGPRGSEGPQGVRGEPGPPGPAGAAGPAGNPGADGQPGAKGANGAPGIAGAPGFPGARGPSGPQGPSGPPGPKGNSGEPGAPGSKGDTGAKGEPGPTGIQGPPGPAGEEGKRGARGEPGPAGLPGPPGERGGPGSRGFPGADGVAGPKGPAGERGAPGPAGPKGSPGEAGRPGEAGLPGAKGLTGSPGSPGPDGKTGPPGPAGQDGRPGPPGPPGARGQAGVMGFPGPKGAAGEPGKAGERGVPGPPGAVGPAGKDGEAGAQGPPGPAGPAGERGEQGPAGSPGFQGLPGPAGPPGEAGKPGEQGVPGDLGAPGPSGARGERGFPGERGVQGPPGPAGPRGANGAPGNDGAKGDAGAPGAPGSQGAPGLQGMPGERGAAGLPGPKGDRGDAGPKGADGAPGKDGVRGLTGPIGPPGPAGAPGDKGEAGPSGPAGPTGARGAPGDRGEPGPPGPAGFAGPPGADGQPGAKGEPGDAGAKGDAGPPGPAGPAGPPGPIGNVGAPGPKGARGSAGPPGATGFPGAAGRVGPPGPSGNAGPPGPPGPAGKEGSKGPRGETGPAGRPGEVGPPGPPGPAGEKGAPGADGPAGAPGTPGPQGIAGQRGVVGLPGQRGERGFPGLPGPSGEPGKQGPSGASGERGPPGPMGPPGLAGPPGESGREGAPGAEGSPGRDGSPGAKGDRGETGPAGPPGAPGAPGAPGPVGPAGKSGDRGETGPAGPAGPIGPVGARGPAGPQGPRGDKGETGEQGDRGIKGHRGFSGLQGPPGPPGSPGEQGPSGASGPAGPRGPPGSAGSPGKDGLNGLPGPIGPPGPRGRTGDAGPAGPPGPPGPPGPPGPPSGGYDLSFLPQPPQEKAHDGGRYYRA
T1 sequence (P02465 80-1117 limits assumed): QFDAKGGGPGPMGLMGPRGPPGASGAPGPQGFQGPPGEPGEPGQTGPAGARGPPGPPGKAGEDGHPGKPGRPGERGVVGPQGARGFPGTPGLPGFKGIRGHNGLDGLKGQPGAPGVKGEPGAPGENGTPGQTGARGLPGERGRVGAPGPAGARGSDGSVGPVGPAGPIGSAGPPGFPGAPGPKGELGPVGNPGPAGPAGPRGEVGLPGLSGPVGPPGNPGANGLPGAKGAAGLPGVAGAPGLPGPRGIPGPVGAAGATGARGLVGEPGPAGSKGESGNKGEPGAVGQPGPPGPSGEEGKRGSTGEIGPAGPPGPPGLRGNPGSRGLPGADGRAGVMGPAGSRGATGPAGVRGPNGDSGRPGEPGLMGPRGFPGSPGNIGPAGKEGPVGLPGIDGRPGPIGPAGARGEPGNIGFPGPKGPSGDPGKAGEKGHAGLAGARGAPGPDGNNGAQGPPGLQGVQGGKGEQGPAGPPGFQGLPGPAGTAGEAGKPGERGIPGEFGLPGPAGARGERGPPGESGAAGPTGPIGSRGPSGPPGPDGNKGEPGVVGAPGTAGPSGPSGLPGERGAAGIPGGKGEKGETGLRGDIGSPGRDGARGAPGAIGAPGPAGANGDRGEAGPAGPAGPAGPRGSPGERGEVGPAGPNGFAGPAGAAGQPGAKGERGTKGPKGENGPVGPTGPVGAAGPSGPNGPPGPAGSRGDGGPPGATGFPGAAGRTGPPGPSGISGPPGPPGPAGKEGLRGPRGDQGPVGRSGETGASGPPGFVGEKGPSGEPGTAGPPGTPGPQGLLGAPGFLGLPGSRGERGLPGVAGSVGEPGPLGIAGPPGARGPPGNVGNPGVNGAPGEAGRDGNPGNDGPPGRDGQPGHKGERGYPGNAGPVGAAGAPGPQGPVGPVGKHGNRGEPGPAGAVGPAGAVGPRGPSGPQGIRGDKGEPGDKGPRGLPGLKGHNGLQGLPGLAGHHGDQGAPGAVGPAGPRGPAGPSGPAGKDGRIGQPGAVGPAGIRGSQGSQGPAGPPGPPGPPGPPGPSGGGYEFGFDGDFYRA

- affinity for collagen I (accumulation at the edge of the gel) (1.5 mg/ml collagen I matrix): little or no affinity for collagen I
- time after which the gradient was stable [1]: approximately 6 hours
- time to formation of a linear gradient after onset of flow [1]: ≤ 2 h
Substance: FITC-dextran

Source: patent US20110217771A1, “Fluidic Culture Device” (priority 2008, published 2011)
